Measured values taken from EP0531958A1, “6-Aminoquinolones, their synthesis and their use as antibacterial agents” (MEDIOLANUM FARMACEUTICI S.P.A., priority 1991, dated 1993).
Values after ≈ are worked out from the molar mass of the structure shown. Read-outs that look alike come from different tables or passages of the source.

Legend:
Type in all cases: cell-based
[1] = test system: Gram +; assay: MIC test, average over the 5 gram-positive test germs; settings: 24 h
Method: (§1) As to the antibacterial activity, there was determined the Least (Minimum) Inhibiting Concentration (MIC), by working according to the following operative conditions.
(§2) There were used suspensions of test germs (5 gram-positive and 15 gram-negative) having a known titre, kept freezed at -80°C and diluted, at the time of use, in peptonized water up to a concentration of 1-2.10⁷ cfu/ml.
(§3) A few mg of the products, according to the invention were weighed sufficient for preparing parent solutions in DMSO + NaOH (1N) containing 2560 µg/ml (64µg/ml/dish). From the thus prepared parent solutions there were prepared 12 serial dilutions (1:2) down to the concentration of 1.25 µg/ml.
(§4) 0.5 ml of the different dilutions of each product were distributed on dishes containing 19.5 ml of agarized medium (TSA), maintained in a fluid state at the temperature of 50°C. After slight stirring, the dishes were made to solidify and dry under hood (laminar flow).
(§5) The MIC tests (Least or "Minimum" Inhibiting Concentration) were performed by using a Steers multiwell inoculator having 36 wells, each containing 200 µl of bacterial suspension.
(§6) After inoculation, the dishes were placed into a thermostat and checked after 24 h of incubation at 35°C.
(§7) The MIC is defined as the lowermost product concentration (µg/ml) inhibiting the visible growth of the microorganisms.

[2] = test system: Acinebacter calcoloaceticus OSMPV 1130; assay: MIC test, agar dilution with Steers multiwell inoculator; settings: TSA dishes, 24 h at 35°C, read-out: Minimum Inhibiting Concentration
Method: as §1, §2, §3, §4, §5, §6, §7

[3] = test system: Enterobacter cloacae OMNF 1153; assay: as above; settings: OMNF1153, TSA dishes, 24 h at 35°C, read-out: Minimum Inhibiting Concentration
Method: as §1, §2, §3, §4, §5, §6, §7

[4] = test system: Enterobacter cloacae OMNF 1174; assay: as above; settings: OMNF1174, TSA dishes, 24 h at 35°C, read-out: Minimum Inhibiting Concentration
Method: as §1, §2, §3, §4, §5, §6, §7

[5] = test system: Escherichia coli 120; assay: as above; settings: TSA dishes, 24 h at 35°C, read-out: Minimum Inhibiting Concentration
Method: as §1, §2, §3, §4, §5, §6, §7

[6] = test system: Escherichia coli ATCC 8739; assay: as above; settings: ATCC8739, TSA dishes, 24 h at 35°C, read-out: Minimum Inhibiting Concentration
Method: as §1, §2, §3, §4, §5, §6, §7

[7] = test system: Escherichia coli CNUR 1; assay: as above; settings: CNUR1, TSA dishes, 24 h at 35°C, read-out: Minimum Inhibiting Concentration
Method: as §1, §2, §3, §4, §5, §6, §7

[8] = test system: Escherichia coli CNUR 8; assay: as above; settings: CNUR8, TSA dishes, 24 h at 35°C, read-out: Minimum Inhibiting Concentration
Method: as §1, §2, §3, §4, §5, §6, §7

[9] = test system: Escherichia coli ISF 432; assay: as above; settings: ISF432, TSA dishes, 24 h at 35°C, read-out: Minimum Inhibiting Concentration
Method: as §1, §2, §3, §4, §5, §6, §7

[10] = test system: Klebsiella pneumoniae ATCC 10031; assay: as above; settings: ATCC10031, TSA dishes, 24 h at 35°C, read-out: Minimum Inhibiting Concentration
Method: as §1, §2, §3, §4, §5, §6, §7

[11] = test system: Proteus vulgaris CNUR 6; assay: as above; settings: CNUR6, TSA dishes, 24 h at 35°C, read-out: Minimum Inhibiting Concentration
Method: as §1, §2, §3, §4, §5, §6, §7

[12] = test system: Providencia stuardii CNUR 5; assay: as above; settings: CNUR5, TSA dishes, 24 h at 35°C, read-out: Minimum Inhibiting Concentration
Method: as §1, §2, §3, §4, §5, §6, §7

[13] = test system: Pseudomonas aeruginosa ATCC 9027; assay: as above; settings: ATCC9027, TSA dishes, 24 h at 35°C, read-out: Minimum Inhibiting Concentration
Method: as §1, §2, §3, §4, §5, §6, §7

[14] = test system: Pseudomonas aeruginosa CNUR 2; assay: as above; settings: CNUR2, TSA dishes, 24 h at 35°C, read-out: Minimum Inhibiting Concentration
Method: as §1, §2, §3, §4, §5, §6, §7

[15] = test system: Pseudomonas aeruginosa CNUR 4; assay: as above; settings: CNUR4, TSA dishes, 24 h at 35°C, read-out: Minimum Inhibiting Concentration
Method: as §1, §2, §3, §4, §5, §6, §7

[16] = test system: Shighella enteritidis; assay: as above; settings: TSA dishes, 24 h at 35°C, read-out: Minimum Inhibiting Concentration
Method: as §1, §2, §3, §4, §5, §6, §7

[17] = test system: Staphylococcus aureus ATCC 6538; assay: as above; settings: ATCC6538, TSA dishes, 24 h at 35°C, read-out: Minimum Inhibiting Concentration
Method: as §1, §2, §3, §4, §5, §6, §7

[18] = test system: Staphylococcus aureus MPR 5; assay: as above; settings: MPR5, TSA dishes, 24 h at 35°C, read-out: Minimum Inhibiting Concentration
Method: as §1, §2, §3, §4, §5, §6, §7

[19] = test system: Staphylococcus epidermidis CPHL A2; assay: as above; settings: CPHLA2, TSA dishes, 24 h at 35°C, read-out: Minimum Inhibiting Concentration
Method: as §1, §2, §3, §4, §5, §6, §7

[20] = test system: Staphylococcus epidermidis HCF Berset C.; assay: as above; settings: TSA dishes, 24 h at 35°C, read-out: Minimum Inhibiting Concentration
Method: as §1, §2, §3, §4, §5, §6, §7

[21] = test system: Streptococcus facealis LEP Br.; assay: as above; settings: TSA dishes, 24 h at 35°C, read-out: Minimum Inhibiting Concentration
Method: as §1, §2, §3, §4, §5, §6, §7

[22] = test system: Gram -; assay: MIC test, average over the 15 gram-negative test germs; settings: 24 h
Method: as §1, §2, §3, §4, §5, §6, §7

[23] = geometrical average of the MIC over the 5 Gram + strains, read-out: Geometrical Average
[24] = geometrical average of the MIC over the 15 Gram - strains, read-out: Geometrical Average
[25] = mean log of the MIC over the 15 Gram - strains, read-out: Log (converted)

| SMILES | MIC ([1]; read-out: Log (converted)) [µg/mL] | MIC [2] [µg/mL] | MIC [3] [µg/mL] | MIC [4] [µg/mL] | MIC [5] [µg/mL] | MIC [6] [µg/mL] | MIC [7] [µg/mL] | MIC [8] [µg/mL] | MIC [9] [µg/mL] | MIC [10] [µg/mL] | MIC [11] [µg/mL] | MIC [12] [µg/mL] | MIC [13] [µg/mL] | MIC [14] [µg/mL] | MIC [15] [µg/mL] | MIC [16] [µg/mL] | MIC [17] [µg/mL] | MIC [18] [µg/mL] | MIC [19] [µg/mL] | MIC [20] [µg/mL] | further results |
| --- | --- | --- | --- | --- | --- | --- | --- | --- | --- | --- | --- | --- | --- | --- | --- | --- | --- | --- | --- | --- | --- |
| Cc1c(N2CCSCC2)c(N)cc2c(=O)c(C(=O)O)cn(C3CC3)c12 [Compound 35] | 0.574 (≈ 1.6 µM) | 1 (≈ 2.78 µM) | 0.5 (≈ 1.39 µM) | 1 (≈ 2.78 µM) | 0.25 (≈ 0.696 µM) | 0.06 (≈ 0.167 µM) | 0.5 (≈ 1.39 µM) | 0.25 (≈ 0.696 µM) | 0.06 (≈ 0.167 µM) | 0.03 (≈ 0.0835 µM) | 64 (≈ 178 µM) | 1 (≈ 2.78 µM) | 4 (≈ 11.1 µM) | 8 (≈ 22.3 µM) | 64 (≈ 178 µM) | 0.5 (≈ 1.39 µM) | 0.25 (≈ 0.696 µM) | 0.25 (≈ 0.696 µM) | 0.5 (≈ 1.39 µM) | 1 (≈ 2.78 µM) | MIC [1, 23]: 0.574 µg/mL; MIC [21]: 2 µg/mL (≈ 5.56 µM); MIC [22, 24]: 0.863 µg/mL (≈ 2.4 µM); MIC [22, 25]: 0.863 µg/mL (≈ 2.4 µM) |
| CN1CCN(c2nc3c(cc2N)c(=O)c(C(=O)O)cn3C2CC2)CC1 [Compound 40, chlorhydrate of the 6-amino-1-cyclopropyl-7-(4-methyl-1-piperazinyl)-1,4-dihydro-4-oxo-1,8-naphthyridine carboxylic acid] | 6.07 | 2 | 0.12 | 0.12 | 0.06 | 0.12 | 0.12 | 0.06 | 0.03 | 0.03 | 64 | 2 | 2 | 4 | 64 | 0.12 | 4 | 4 | 4 | 4 | MIC [1, 23]: 6.06 µg/mL; MIC [21]: 32 µg/mL; MIC [22, 24]: 0.466 µg/mL; MIC [22, 25]: 0.466 µg/mL |
| CN1CCN(c2nc3c(c(N)c2N)c(=O)c(C(=O)O)cn3C2CC2)CC1 [Compound 42] | 4 (≈ 11.2 µM) | 4 (≈ 11.2 µM) | 1 (≈ 2.79 µM) | 1 (≈ 2.79 µM) | 0.25 (≈ 0.698 µM) | 0.06 (≈ 0.167 µM) | 1 (≈ 2.79 µM) | 0.25 (≈ 0.698 µM) | 0.06 (≈ 0.167 µM) | 0.06 (≈ 0.167 µM) | 64 (≈ 179 µM) | 4 (≈ 11.2 µM) | 8 (≈ 22.3 µM) | 16 (≈ 44.6 µM) | 128 (≈ 357 µM) | 0.5 (≈ 1.4 µM) | 2 (≈ 5.58 µM) | 2 (≈ 5.58 µM) | 4 (≈ 11.2 µM) | 4 (≈ 11.2 µM) | MIC [21]: 16 µg/mL (≈ 44.6 µM); MIC [22, 24]: 1.37 µg/mL (≈ 3.83 µM); MIC [22, 25]: 1.37 µg/mL (≈ 3.82 µM) |
